The subject of this test is ras p21 protein. In words: Ras p21 Nucleotide Exchange Assay (inhibition of ^3H-GDP binding to p21 ras). The test is classed as biochemical. The conditions noted are these: for Ras p21 Assay (per cent inhibition): at (100), unit not given. On the procedure: Ras p21 Nucleotide Exchange Assay
The conditions for assay of nucleotide exchange inhibitors was adapted from Hall, A. and A. J. Self. 1986 J. Biol. Chem. 261: 10963-10965, which is hereby incorporated by reference.
0.5 μM ras p21 protein was incubated in 50 μls exhange buffer (50 mM Tris-HCl pH 7.5, 5 mM MgCl2, 50 mM NaCl and […]) on ice. Compounds dissolved in dimethyl sulfoxide (DMSO) were added to the desired concentration such that the final concentration of DMSO in the reaction mixture was 2% by weight. The reaction was incubated for 5 minutes on ice and then ^3 H-GDP (final concentration was 0.25 μM) was added.
Biological data are given throughout the specification in one of two forms: either as per cent inhibitions, or as the concentration at which the test compound causes 50% inhibition (IC50) of the binding of ^3 H-GDP to the p21 ras protein.
When the above assay was run at one concentration of the test compound, then the data was given as per cent inhibition at a particular concentration. […] When the assay was run at a series of concentrations, then the data were given as IC50 's.

[1] abbreviates: table 2, concentration causing 50% inhibition of ^3H-GDP binding, read-out: ras p21 Assay (IC50).
[2] abbreviates: table 3, concentration causing 50% inhibition of ^3H-GDP binding, read-out: ras 21 assay (IC50).
[3] abbreviates: read-out: IC50 in the ras p21 assay.
Setting [4] is: table 4 (arabinose derivatives), 50 μM.
The mark [5] stands for this setting: table 1, concentration causing 50% inhibition of ^3H-GDP binding, read-out: Ras p21 Assay (IC50).

Structures are written as SMILES. Like-named read-outs stand apart in the source and are kept apart here.

Turning to `COc1ccc2nc3c(c(C)nn3[C@@H]3O[C@H](COC(=O)c4ccccc4)[C@H]4OC(C)(C)O[C@H]43)c(OCCN(C)C)c2c1`, the “inhibition in the ras p21 assay” value (100 μM) was 59%.
Take `COc1ccc2nc3c(c(C)nn3[C@@H]3O[C@H](CNC(=O)c4ccccc4)[C@H]4OC(C)(C)O[C@H]43)c(Cl)c2c1` [O(CO)PhNH OC(CH3)2 O]: for the setting “table 2, 50 μM”, the “ras p21 Assay (per cent inhibition)” value was 56%.
On to `COc1ccc2nc3c(c(C)nn3[C@@H]3O[C@H](COC(=O)c4ccccc4)[C@H]4OC(=S)O[C@H]43)c(Cl)c2c1` [(CO)Ph OC(S)O], for which, under setting [1], the IC50 (usually the concentration that gives 50% inhibition) came out at 15 µM.
On to `COc1ccc2nc3c(c(C)nn3[C@@H]3O[C@H](COC(C)=O)[C@@H](OC(C)=O)[C@H]3OC(C)=O)c(Cl)c2c1` [OCOCH3 O(CO)CH3 O(CO)CH3], for which, under “table 2, 100 μM”, the “ras p21 Assay (per cent inhibition)” value came out at 3%.
With `COc1ccc2nc3nn([C@@H]4O[C@H](CO)[C@@H](O)[C@H]4O)c(C)c3c(Cl)c2c1` [Cl OH OH OH], the “Ras p21 Assay (per cent inhibition)” value (table 1) was 0%.
As to `COc1ccc2nc3c(c(C)nn3[C@@H]3O[C@H](COCc4ccccc4)[C@@H](OCc4ccccc4)[C@H]3OCc3ccccc3)c(Cl)c2c1` [CH2 Ph CH2 Ph CH2 Ph], the “ras p21 Assay (per cent inhibition)” value (table 2, 100 μM) is given as 35%.
With `COc1ccc2nc3nn([C@@H]4O[C@H](COC(=O)c5ccccc5)[C@@H](O)[C@H]4O)c(C)c3c(Cl)c2c1` [Cl O(CO)Ph OH OH], where the note is “table 1”, the “Ras p21 Assay (per cent inhibition)” value was determined as 49%.
Take `COc1ccc2nc3c(c(C)nn3[C@H]3C=C[C@@H](/C=C/C(=O)c4ccccc4)O3)c(Cl)c2c1`: under setting [2], the IC50 turned out to be 35 µM.
`COc1ccc2nc3c(c(C)nn3[C@@H]3O[C@H](COC(=O)CC(C)C)[C@@H](OC(=O)CC(C)C)[C@H]3OC(=O)CC(C)C)c(Cl)c2c1`: the “ras p21 Assay (per cent inhibition)” value (table 2, 50 μM) is 33%.
With `COc1ccc2nc3c(c(C)nn3[C@@H]3O[C@H](C(O)CC(=O)c4ccccc4)[C@H]4OC(=S)O[C@H]43)c(Cl)c2c1` (stereo partly shown) [Compound U], the IC50 worked out at 1.5 µM under setting [3] and 1.5 µM under setting [1].
For `COc1ccc2nc3c(c(C)nn3[C@@H]3O[C@H](COC(=O)c4ccccc4)[C@@H](OC(=O)c4ccccc4)[C@@H]3OC(=O)c3ccccc3)c(Cl)c2c1` [CH2 OBz OBz OBz Cl], the “p21 ras assay (per cent inhibition)” value under setting [4] was found to be 17%.
On to `COc1ccc2nc3c(c(C)nn3[C@@H]3O[C@H](COC(=O)c4cc(C)ccc4C)[C@@H](OC(=O)c4cc(C)ccc4C)[C@H]3OC(=O)c3cc(C)ccc3C)c(Cl)c2c1`, for which, under “table 2, 100 μM”, the “ras p21 Assay (per cent inhibition)” value was 37%.
Turning to `COc1ccc2nc3c(cc2c1)c(C)nn3[C@@H]1O[C@H](COC(=O)c2ccccc2)[C@@H](O)[C@H]1O`, the IC50 under setting [3] was determined as 50 µM.
For the compound `COc1ccc2nc3c(c(C)nn3[C@@H]3O[C@H](COC(=O)c4ccccc4)[C@H]4OC(c5ccccc5)O[C@H]43)c(Cl)c2c1` (stereo partly shown) [O(CO)Ph OC(Ph)O], the “ras p21 Assay (per cent inhibition)” value (table 2, 100 μM) is recorded as 41%.
Turning to `COc1ccc2nc3c(c(C)nn3[C@H]3C=C[C@@H](C(O)CC(=O)c4ccccc4)O3)c(Cl)c2c1` (stereo partly shown), the “ras 21 assay (per cent inhibition)” value (table 3, 50 μM) came out at 48%.
In the case of `COc1ccc2nc3c(c(C)nn3[C@@H]3O[C@H](/C=C/C(=O)c4ccccc4)[C@@H](O)[C@H]3O)c(Cl)c2c1`, under setting [2], the IC50 stood at 10 µM.
For the compound `COc1ccc2nc3c(cc2c1)c(C)nn3[C@@H]1O[C@H](COC(=O)c2ccccc2)[C@@H](OC(=O)c2ccccc2)[C@@H]1OC(=O)c1ccccc1` [CH2 OBz OBz OBz H], where the note is “table 4 (arabinose derivatives), concentration causing 50% inhibition of ^3H-GDP binding, read-out: p21 ras assay (IC50)”, the IC50 was found to be 10 µM.
Turning to `COc1ccc2nc3c(c(C)nn3[C@@H]3O[C@H](COC(=O)Cc4ccccc4)[C@@H](OC(=O)Cc4ccccc4)[C@H]3OC(=O)Cc3ccccc3)c(Cl)c2c1` [O(CO)CH2 Ph (CO)CH2 Ph O(CO)CH2 Ph], for the setting “table 2, 100 μM”, the “ras p21 Assay (per cent inhibition)” value turned out to be 62%.
For the compound `COc1ccc2nc3c(c(C)nn3[C@@H]3O[C@H](COC(=O)c4ccc([N+](=O)[O-])cc4)[C@@H](OC(=O)c4ccc([N+](=O)[O-])cc4)[C@H]3OC(=O)c3ccc([N+](=O)[O-])cc3)c(Cl)c2c1` [O(CO)Ph-4-NO2 (CO)Ph-4-NO2 O(CO)Ph-4-NO2], for the setting “table 2, 100 μM”, the “ras p21 Assay (per cent inhibition)” value turned out to be 59%.
As to `COc1ccc2nc3nn([C@@H]4O[C@H](COC(=O)c5ccccc5)[C@@H](OC(C)=O)[C@H]4OC(C)=O)c(C)c3c(Cl)c2c1` [Cl O(CO)Ph OCOCH3 OCOCH3], the “Ras p21 Assay (per cent inhibition)” value (table 1) was found to be 20%.
`COc1ccc2nc3c(c(C)nn3[C@@H]3O[C@H](/C=C/C(=O)c4ccccc4)[C@H]4OC(C)(C)O[C@H]43)c(Cl)c2c1`: the “ras 21 assay (per cent inhibition)” value (table 3, 100 μM) was found to be 53%.
Take `COc1ccc2nc3c(c(C)nn3[C@@H]3O[C@H](COC(=O)c4ccccc4)[C@@H](OC(C)=O)[C@H]3OC(C)=O)c(Cl)c2c1` [O(CO)Ph O(CO)CH3 O(CO)CH3]: the “ras p21 Assay (per cent inhibition)” value (table 2, 100 μM) turned out to be 44%.
As for `COc1ccc2nc3c(c(C)nn3[C@@H]3O[C@H](COC(=O)c4ccco4)[C@@H](OC(=O)c4ccco4)[C@H]3OC(=O)c3ccco3)c(Cl)c2c1` [O(CO)-2-Fu O(CO)-2-Fu O(CO)-2-Fu], the concentration for half-maximal inhibition (IC50) under setting [1] came to 10 µM.
`COc1ccc2nc3c(c(C)nn3[C@H]3C=C[C@@H](CCC(=O)c4ccccc4)O3)c(Cl)c2c1`: where the note is “table 3, 100 μM”, the “ras 21 assay (per cent inhibition)” value was determined as 53%.
Consider `COc1ccc2nc3nn([C@@H]4O[C@H](COC(=O)c5ccccc5)[C@@H](OC(=O)c5ccccc5)[C@H]4OC(=O)c4ccccc4)c(C)c3c(Cl)c2c1` [Cl O(CO)Ph O(CO)Ph O(CO)Ph], for which the IC50 under setting [5] was 10 µM.
Turning to `COc1ccc2nc3c(c(C)nn3[C@@H]3O[C@H](CO)[C@H]4OC(C)(C)O[C@H]43)c(Cl)c2c1` [OH OC(CH3)2 O], the “ras p21 Assay (per cent inhibition)” value (table 2, 100 μM) came to 11%.
On to `COc1ccc2nc3c(c(C)nn3[C@@H]3O[C@H](CO)[C@@H](O)[C@@H]3O)c(Cl)c2c1` [CH2 OH OH OH Cl], for which the “p21 ras assay (per cent inhibition)” value under setting [4] was 18%.
On to `COc1ccc2nc3nn([C@@H]4O[C@H](COC(=O)c5ccccc5)[C@@H](OC(=O)c5ccccc5)[C@H]4OC(=O)c4ccccc4)c(C)c3c(O)c2c1` [OH O(CO)Ph O(CO)Ph O(CO)Ph], for which the IC50 under setting [5] turned out to be 10 µM.
In the case of `COc1ccc2nc3c(c(C)nn3[C@@H]3O[C@H](CN)[C@H]4OC(C)(C)O[C@H]43)c(Cl)c2c1` [NH2 OC(CH3)2 O], the “ras p21 Assay (per cent inhibition)” value (table 2, 50 μM) came to 38%.
Take `COc1ccc2nc3c(c(C)nn3[C@@H]3O[C@H](COC(=O)c4ccccc4)[C@@H](O)[C@H]3O)c(Cl)c2c1` [O(CO)Ph OH OH]: the “ras p21 Assay (per cent inhibition)” value (table 2, 100 μM) was found to be 16%.
On to `COc1ccc2nc3nn([C@@H]4O[C@H](COC(=O)c5ccccc5)[C@@H](OC(=O)c5ccccc5)[C@H]4OC(=O)c4ccccc4)c(C)c3cc2c1` [H O(CO)Ph O(CO)Ph O(CO)Ph], for which the IC50 under setting [5] was 8 µM.
In the case of `COc1ccc2nc3c(c(C)nn3-c3ccc(/C=C/C(=O)c4ccccc4)o3)c(Cl)c2c1`, the “ras 21 assay (per cent inhibition)” value (table 3, 50 μM) is listed as 61%.
On to `COc1ccc2nc3nn([C@@H]4O[C@H](CO)[C@@H](O)[C@H]4O)c(C)c3c(O)c2c1` [OH OH OH OH], for which the “Ras p21 Assay (per cent inhibition)” value (table 1) was found to be 49%.
Turning to `COc1ccc2nc3c(c(C)nn3[C@@H]3O[C@H](COC(=O)c4ccoc4)[C@@H](OC(=O)c4ccoc4)[C@H]3OC(=O)c3ccoc3)c(Cl)c2c1` [O(CO)-3-Fu O(CO)-3-Fu O(CO)-3-Fu], the “ras p21 Assay (per cent inhibition)” value (table 2, 50 μM) came to 49%.
As for `COc1ccc(C(=O)OC[C@H]2O[C@@H](n3nc(C)c4c(Cl)c5cc(OC)ccc5nc43)[C@H](OC(=O)c3ccc(OC)cc3)[C@@H]2OC(=O)c2ccc(OC)cc2)cc1`, the “ras p21 Assay (per cent inhibition)” value (table 2, 100 μM) turned out to be 44%.
In the case of `COc1ccc2nc3c(c(C)nn3[C@@H]3O[C@H](COCc4ccccc4)[C@@H](OCc4ccccc4)[C@@H]3OCc3ccccc3)c(Cl)c2c1` [CH2 OBn OBn OBn Cl], under setting [4], the “p21 ras assay (per cent inhibition)” value worked out at 31%.
Take `COc1ccc2nc3nn([C@@H]4O[C@H](COC(=O)c5ccccc5)[C@@H](OC(=O)c5ccccc5)[C@@H]4OCc4ccccc4)c(C)c3c(Cl)c2c1`: the “ras p21 Assay (per cent inhibition)” value (50 μM) is recorded as 32%.
`COc1ccc2nc3c(c(C)nn3[C@@H]3O[C@H](COC(=O)c4ccccc4)[C@@H](OC(=O)c4ccccc4)[C@H]3OC(=O)c3ccccc3)c(OCCN(C)C)c2c1`: the “inhibition in the ras p21 assay” value (100 μM) was determined as 12%.
For the compound `COc1ccc2nc3c(c(C)nn3[C@@H]3O[C@H](COC(=O)c4cccnc4)[C@@H](OC(=O)c4cccnc4)[C@H]3OC(=O)c3cccnc3)c(Cl)c2c1` [O(CO)Py O(CO)Py O(CO)Py], the “ras p21 Assay (per cent inhibition)” value (table 2, 50 μM) worked out at 33%.
On to `COc1ccc2nc3nn([C@@H]4O[C@H](COC(=O)c5ccccc5)[C@H]5OC(=S)O[C@H]54)c(C)c3c(Cl)c2c1` [Cl O(CO)Ph OC(S)O], for which the “Ras p21 Assay (per cent inhibition)” value (table 1) is 86%.
Consider `COc1ccc2nc3c(c(C)nn3[C@@H]3O[C@H](C(O)CC(=O)c4ccccc4)[C@@H](O)[C@H]3O)c(Cl)c2c1` (stereo partly shown), for which the “ras 21 assay (per cent inhibition)” value (table 3, 50 μM) turned out to be 34%.
In the case of `COc1ccc2nc3c(c(C)nn3[C@H]3C=C[C@@H](COC(=O)c4ccccc4)O3)c(Cl)c2c1` [O(CO)Ph --], under setting [1], the IC50 amounted to 90 µM.
Consider `COc1ccc2nc3c(c(C)nn3[C@@H]3O[C@H](COC(=O)c4ccccc4)[C@@H](OC(=O)c4ccccc4)[C@H]3OC(=O)c3ccccc3)c(NCCN3CCOCC3)c2c1`, for which the “inhibition in the ras p21 assay” value (100 μM) came to 86%.
On to `COc1ccc2nc3c(c(C)nn3[C@@H]3O[C@H](COC(=O)c4ccccc4)[C@@H](OCc4ccccc4)[C@H]3OCc3ccccc3)c(Cl)c2c1` [O(CO)Ph CH2 Ph CH2 Ph], for which the “ras p21 Assay (per cent inhibition)” value (table 2, 100 μM) turned out to be 53%.
Consider `COc1ccc2nc3c(c(C)nn3[C@H]3CC[C@@H](COC(=O)c4ccccc4)O3)c(Cl)c2c1`, for which the “ras 21 assay (per cent inhibition)” value (table 3, 100 μM) worked out at 38%.
